Results taken from patent publication US20100261693A1, “METHOD FOR TREATING CUSHING'S SYNDROME” (priority 2007, published 2010).

Columns and labels:
[1] = test system: Cushing's syndrome (ectopic ACTH secretion); settings: cited from earlier work
[2] = test system: Cushing's syndrome secondary to ectopic ACTH secretion; experiment: Case-study: mifepristone in a patient with Cushing's syndrome secondary to ectopic ACTH secretion; type: in vivo, human; settings: person
Excerpt: A subject, first presented with clinical symptoms of Cushing's syndrome in August 2006, and they were diagnosed with Cushing's syndrome secondary to ectopic ACTH secretion in March 2007.

[3] = 200 mg three times a day, after 2 weeks of treatment

Compound: CC#C[C@]1(O)CC[C@H]2[C@@H]3CCC4=CC(=O)CCC4=C3[C@@H](c3ccc(N(C)C)cc3)C[C@@]21C [mifepristone]
- outcome of fractioned dosage ([1]; fractioned dosage, young child): successfully given
- efficacy in clinical trials ([1]; high-dose mifepristone once a day): some efficacy
- concomitant insulin treatment [2, 3]: insulin was stopped
- dose of concomitant metformin [2, 3]: decreased by two
- general clinical consequences of hypercortisolism [2, 3]: rapidly improved
- glycemia [2, 3]: returned to normal
- dose of enalapril previously administered for hypertension ([2]; mifepristone 200 mg three times a day): decreased from 30 mg to 10 mg
